Earlier results in US20110008428A1, “SOLID PHARMACEUTICAL COMPOSITION COMPRISING A NON-PEPTIDE ANGIOTENSIN II RECEPTOR ANTAGONIST AND A DIURETIC” (ratiopharm GmbH, priority 2008, published 2011).

Details: free acid form; physiological pH range of the gastro-intestinal tract, between pH 1-7

Structure (SMILES): CCCc1nc2c(C)cc(-c3nc4ccccc4n3C)cc2n1Cc1ccc(-c2ccccc2C(=O)O)cc1 [Telmisartan, 4′-[(1,4′-dimethyl-2′-n-propyl-[2,6′-bi-1H-benzimidazol]-1′-yl)methyl]-[1,1′-biphenyl]-2-carboxylic acid]
- solubility in aqueous systems: very poor
